Experimental findings from patent US4997835A, “Substituted 2-acylpyridine-α-(N)-hetarlyhydrazones and medicaments containing the same” (priority 1987, dated 1991) are described below.

In brackets after ≈: the same amount, converted by molar mass. Read-outs that look alike come from different tables or passages of the source.

Format in all cases: cell-based
Test [1] concerns Mycobacterium tuberculosis H 37 RV. In words: Minimum inhibiting concentration, M. tuberculosis H37RV. Conditions: Mycobacterium tuberculosis; M. tub. H37RV. On the procedure: The minimum inhibiting concentration of the commercially available and inventive substances given in Table 2 was determined according to the known standard process ("Methods for sensitivity testing of bacterial infectious germs", DIN 58940, part 5).
The determination was carried out on the following bacterial cultures:
2. Mycobacterium tuberculosis H 37 RV, FIB 2-85 JS
For culturing the bacterial cultures use was made of nutrient substrates according to Gottsacker and Lowenstein Jensen and culture media according to Lockemann or Dubos-Davis (cf. "Detection processes for mycobacteria from test material, III, culture medium formulations for culturing tuberculosis bacteria", 1978, Publisher: Deutsches Zentralkomitee zur Bekampfung der Tuberculose, Poppenhusenstrasse 14c, 2000 Hamburg 60).
In each case 5×10^-3 to 5×10^-5 mg, based on the wet weight, of the mycobacterial strains were incubated in 2 ml of culture fluid (Lockemann +0.5 wt/vol. % bovine serum albumen fraction 5) at 31° C. with a graded concentration of the particular inhibitor (dilution series). The culture tubes were read off after 8 to 15 days, as a function of the bacterial strain.
The MIC is the inhibitor concentration in μMol/l at which no propagation of the sewn cells is observed.

Test [2] has as its system Mycobacterium marinum SN 1254. Put plainly: Minimum inhibiting concentration, M. marinum SN1254.
For another test, the system named is Mycobacterium lufu. Put plainly: Minimum inhibiting concentration, M. lufu L 209. Conditions: Mycobacterium lufu.
For test [3], the system named is Mycobacterium smegmatis ATCC 607. In words: Minimum inhibiting concentration, M. smegmatis ATCC 607. The conditions noted are these: Mycolicibacterium smegmatis.
Test [4] deals with Mycobacterium avium Patient Strain (Birk). Put plainly: Minimum inhibiting concentration, M. avium Patient Strain (Birk). Conditions: Mycobacterium avium; M. avium Patient str.; read-out: Minimum inhibiting concentration.
Test [5] deals with Indochina W-2 (parasitic malaria strain). Put plainly: Growth of malaria strain Indochina W-2. The conditions noted are these: for IC50: read-out: I50; for IC90: read-out: I90. The text has this:
(§1) Determination of the semimaximum inhibiting concentration (I50) of typical representatives of the inventive compounds for the growth of parasitic malaria strains:
(§2) The determination took place according to the standard process (cf. WHO determination process).
(§3) The process according to Example 35 was repeated with the difference that the semimaximum inhibiting concentration of combinations of the inventive compound PH 22 with (2), (3) inhibitors of dihydrofolic acid reductase, (4) inhibitors of folate synthase and dihydrofolic acid reductase and (5), (6) inhibitors of DNA-synthesis were determined.

The subject of test [6] is Sierra Leone D-6 (parasitic malaria strain). In words: Growth of malaria strain Sierra Leone D-6. The conditions noted are these: for IC50: read-out: I50; for IC90: read-out: I90.
Source text: as §1, §2, §3

Where [7] appears, read: M. marin. SN1254, read-out: Minimum inhibiting concentration.
The mark [8] stands for this setting: ATCC607, M. smegm. ATCC 607, read-out: Minimum inhibiting concentration.

In the case of `CC(O)CN(C)c1ccc(NN=Cc2ccccn2)nn1` (centres unmarked) [PH 22-28, pyridine-2-aldehyde-6'-(N-methyl-N-2"-hydroxypropyl)-amino-3'-pyridazinylhydrazone], the MIC in test [1] turned out to be 140 µM (≈ 40.1 µg/mL); in test [2] (setting [7]) it was 70 µM (≈ 20 µg/mL); with Mycobacterium lufu, 35 µM (≈ 10 µg/mL).

With `CC(=NNc1nncc2ccccc12)c1ccccn1` [PH 22-3, 2-acetylpyridine-1'-phthalazinylhydrazone], the MIC in test [1] was determined as 31 µM (≈ 8.16 µg/mL); in test [3] (setting [8]) it was 44 µM (≈ 11.6 µg/mL); in test [2] (setting [7]), 22 µM (≈ 5.79 µg/mL); in the test on Mycobacterium lufu it was 6.6 µM (≈ 1.74 µg/mL); in test [4], 53 µM (≈ 14 µg/mL).

For `Clc1cccc(NN=Cc2ccccn2)n1` [PH 22-29, pyridine-2-aldehyde-6'-chloro-2'-pyridylhydrazone], the MIC was 1.6 µM (≈ 0.372 µg/mL) in test [1], 6.5 µM (≈ 1.51 µg/mL) in test [2] (setting [7]), 3.2 µM (≈ 0.745 µg/mL) in the test on Mycobacterium lufu and 60 µM (≈ 14 µg/mL) in test [4].

As for `C(=NNc1ccccn1)c1nccc2ccccc12` [PH 22-37, isoquinoline-1-aldehyde-2'-pyridyl hydrazone], the MIC was 3 µM (≈ 0.745 µg/mL) in test [1], 6 µM (≈ 1.49 µg/mL) in test [3] (setting [8]), 6 µM (≈ 1.49 µg/mL) in test [2] (setting [7]) and 12.1 µM (≈ 3 µg/mL) with Mycobacterium lufu.

Regarding `CCc1ccc(C=NNc2ccccn2)nc1` [PH 22-13, 5-ethyl-pyridine-2-aldehyde-2'-pyridylhydrazone], the MIC in test [1] came out at 22 µM (≈ 4.98 µg/mL); in test [3] (setting [8]), 22 µM (≈ 4.98 µg/mL); in test [2] (setting [7]) it was 44 µM (≈ 9.96 µg/mL); in the test on Mycobacterium lufu it was 53 µM (≈ 12 µg/mL).

For `Cc1cccc(C=NNc2ccccn2)n1` [PH 22-10, 6-methyl pyridine-2-aldehyde-pyridylhydrazone], the MIC amounted to 47 µM (≈ 9.98 µg/mL) in test [1], 33 µM (≈ 7 µg/mL) in test [3] (setting [8]) and 8.3 µM (≈ 1.76 µg/mL) with Mycobacterium lufu.

For `Cc1ccc(C=NNc2nncc3ccccc23)nc1` [PH 22-16, 5-methyl-pyridine-2-aldehyde-1'-phthalazinylhydrazone], the MIC in test [1] was 1.4 µM (≈ 0.369 µg/mL); in test [3] (setting [8]) it was 5.7 µM (≈ 1.5 µg/mL); in test [2] (setting [7]) it was 76 µM (≈ 20 µg/mL); against Mycobacterium lufu it was 4.8 µM (≈ 1.26 µg/mL).

For the molecule `Cc1cccc(NN=Cc2ccccn2)n1` [PH 22-31, pyridine-2-aldehyde-2'-(6'-methyl)-pyridylhydrazone], the MIC stood at 1.8 µM (≈ 0.382 µg/mL) in test [1], 8.3 µM (≈ 1.76 µg/mL) in test [2] (setting [7]), 3.5 µM (≈ 0.743 µg/mL) with Mycobacterium lufu and 57 µM (≈ 12.1 µg/mL) in test [4].

For `Clc1ccc(NN=Cc2ccccn2)nc1` [PH 22-30, pyridine-2-aldehyde-5'-chloro-2'-pyridylhydrazone], the MIC in test [1] came out at 1.3 µM (≈ 0.302 µg/mL); in test [2] (setting [7]), 5.4 µM (≈ 1.26 µg/mL); with Mycobacterium lufu, 2.7 µM (≈ 0.628 µg/mL); in test [4] it was 13 µM (≈ 3.02 µg/mL).

For the molecule `C(=NNc1nncc2ccccc12)c1ccccn1` [PH 22-1, pyridine-2-aldehyde-1'-phthalazinylhydrazone], the values for the MIC (in test [1]; in test [3] (setting [8]); against Mycobacterium lufu) were 49 µM (≈ 12.2 µg/mL), 49 µM (≈ 12.2 µg/mL) and 12.1 µM (≈ 3.02 µg/mL), respectively.

Consider `CC(=NNc1nncc2ccccc12)c1cc(N)ccn1` [PH 22-24, 2-acetyl-4-aminopyridine-1'-phthalazinylhydrazine], for which the MIC in test [1] was 4.5 µM (≈ 1.25 µg/mL); in test [3] (setting [8]), 4.5 µM (≈ 1.25 µg/mL); in test [2] (setting [7]), 18 µM (≈ 5.01 µg/mL); against Mycobacterium lufu it was 2.2 µM (≈ 0.612 µg/mL).

For the molecule `C(=NNc1nccc2ccccc12)c1ccccn1` [PH 22-27, pyridine-2-aldehyde-1'-isoquinolylhydrazone], the MIC came out at 8.1 µM (≈ 2.01 µg/mL) in test [1], 12.1 µM (≈ 3 µg/mL) in test [3] (setting [8]), 16.1 µM (≈ 4 µg/mL) in test [2] (setting [7]) and 6 µM (≈ 1.49 µg/mL) in the test with Mycobacterium lufu.

With `CC(=O)Nc1ccnc(C(C)=NNc2nncc3ccccc23)c1` [PH 22-20, 4-acetylamino-2-acetylpyridine-1'-phthalazinylhydrazine], the MIC in test [1] is 10.9 µM (≈ 3.49 µg/mL); in test [3] (setting [8]) it was 15.6 µM (≈ 5 µg/mL); in test [2] (setting [7]), 88 µM (≈ 28.2 µg/mL); against Mycobacterium lufu it was 12.5 µM (≈ 4 µg/mL).

For `CC(=O)Nc1ccnc(C=NNc2nncc3ccccc23)c1` [PH 22-18, 4-acetylaminopyridine-2-aldehyde-1'-phthalazinylhydrazone], the MIC in test [1] came out at 46 µM (≈ 14.1 µg/mL); in test [3] (setting [8]), 65 µM (≈ 19.9 µg/mL); in test [2] (setting [7]) it was 92 µM (≈ 28.2 µg/mL); against Mycobacterium lufu it was 22.9 µM (≈ 7.01 µg/mL).

For `CC(=NNc1cc(Cl)ncn1)c1ccccn1` [PH 22-32], the figures for the MIC (in test [1]; in test [2] (setting [7]); in the test on Mycobacterium lufu) were 6.1 µM (≈ 1.51 µg/mL), 28.3 µM (≈ 7.01 µg/mL) and 1.3 µM (≈ 0.322 µg/mL), respectively.

On to `Clc1cccc(C=NNc2ccccn2)n1` [PH 22-11, 6-chloropyridine-2-aldehyde-2'-pyridylhydrazone], for which the figures for the IC50 in test [5] and in test [6] were 8.9 µM and 13.1 µM, respectively. In addition, the IC90 in test [5] was determined as 23 µM; in test [6] it was 25.7 µM. In addition, the values for the MIC (in test [1]; in test [3] (setting [8]); in the test on Mycobacterium lufu) were 86 µM (≈ 20 µg/mL), 56 µM (≈ 13 µg/mL) and 43 µM (≈ 10 µg/mL), respectively.

With `Cc1ccnc(C=NNc2nncc3ccccc23)c1` [PH 22-8, 4-methyl-pyridine-2-aldehyde-1'-phthalazinylhydrazone], the MIC in test [1] amounted to 18 µM (≈ 4.74 µg/mL); in test [3] (setting [8]), 44 µM (≈ 11.6 µg/mL); in test [2] (setting [7]), 22 µM (≈ 5.79 µg/mL); against Mycobacterium lufu, 31 µM (≈ 8.16 µg/mL).

Take `Nc1ccnc(C=NNc2nncc3ccccc23)c1` [PH 22-23, 4-aminopyridine-2-aldehyde-1'-phthalazinylhydrazine]: the MIC in test [1] came to 13.3 µM (≈ 3.52 µg/mL); in test [3] (setting [8]), 13.3 µM (≈ 3.52 µg/mL); in test [2] (setting [7]) it was 38 µM (≈ 10 µg/mL); against Mycobacterium lufu, 26.5 µM (≈ 7 µg/mL).

`CN(N=Cc1ccccn1)c1cc(Cl)ncn1` [PH 22-36, pyridine-2-aldehyde-6'-chloro-4'-pyrimidyl-(N1-methyl)-hydrazone]: the figures for the MIC (in test [1]; in test [2] (setting [7]); in the test with Mycobacterium lufu) were 136 µM (≈ 33.7 µg/mL), 119 µM (≈ 29.5 µg/mL) and 5.3 µM (≈ 1.31 µg/mL), respectively.

On to `CC(=NNc1ncnc2ccccc12)c1ccccn1` [PH 22-34, 2-acetylpyridine-4'-quinazolylhydrazone], for which the MIC was 12 µM (≈ 3.16 µg/mL) in test [1], 64 µM (≈ 16.9 µg/mL) in test [2] (setting [7]) and less than 1 µM in the test on Mycobacterium lufu.

In the case of `CC(=O)Nc1ccnc(C=NNc2ccc3ccccc3n2)c1` [PH 22-19, 4-acetylaminopyridine-2-aldehyde-2'-quinolylhydrazone], the MIC in test [1] turned out to be 11.5 µM (≈ 3.51 µg/mL); in test [3] (setting [8]), 9.8 µM (≈ 2.99 µg/mL); in test [2] (setting [7]), 11.5 µM (≈ 3.51 µg/mL); against Mycobacterium lufu it was 32.9 µM (≈ 10 µg/mL).

With `CCc1ccc(C=NNc2nncc3ccccc23)nc1` [PH 22-5, 5-ethylpyridine-2-aldehyde-1'-phthalazinylhydrazone], the MIC came out at 16.6 µM (≈ 4.6 µg/mL) in test [1], 67 µM (≈ 18.6 µg/mL) in test [3] (setting [8]), 10.4 µM (≈ 2.88 µg/mL) in test [2] (setting [7]) and 14.5 µM (≈ 4.02 µg/mL) with Mycobacterium lufu.

For `CCc1ccc(C=NNc2cc(OC)ncn2)nc1` [PH 22-33, 5-ethylpyridine-2-aldehyde-6'-methoxy-4'-pyrimidylhydrazone], the MIC in test [1] was 2.4 µM (≈ 0.618 µg/mL); in test [2] (setting [7]), 4.9 µM (≈ 1.26 µg/mL); against Mycobacterium lufu, 1.5 µM (≈ 0.386 µg/mL).

For `Cc1ccc(C=NNc2ccc3ccccc3n2)nc1` [PH 22-14, 5-methyl-pyridine-2-aldehyde-2'-quinolylhydrazone], the MIC in test [1] came to 1.2 µM (≈ 0.315 µg/mL); in test [3] (setting [8]) it was 9.5 µM (≈ 2.49 µg/mL); in test [2] (setting [7]), 5.7 µM (≈ 1.5 µg/mL); against Mycobacterium lufu, 3.8 µM (≈ 0.997 µg/mL).

As for `CC(=O)Nc1ccnc(C=NNc2ccccn2)c1` [PH 22-17, 4-acetylamino-pyridine-2-aldehyde-2'-pyridylhydrazone], the IC50 came to 0.5 µM in test [5] and 0.6 µM in test [6]. Moreover, the IC90 came out at 2.3 µM in test [5] and 1.1 µM in test [6]. In addition, the MIC in test [1] is greater than 125 µM; in test [3] (ATCC607, read-out: Minimum inhibiting concentration), greater than 125 µM; in test [2] (SN1254, read-out: Minimum inhibiting concentration), greater than 125 µM; in the test with Mycobacterium lufu, 94 µM (≈ 24 µg/mL).
